Measurements reported in PubChem BioAssay AID1035473 (Broad Institute, 2014).

System: A549 viability, CellTiter-Glo ATP luminescence, 72 h
Test: A549 cell cytotoxicity, dose response, cytotoxicity control, dry powder samples (AID 1035473)

SMILES: Cn1c(NC(=O)c2ccccc2)nc2c3cnccc3ccc21
- AC50: 83.9 µM
